Test results reported in PMC11649117, “SLMO transfers phosphatidylserine between the outer and inner mitochondrial membrane in Drosophila” (PLOS Biology, 2024).

Target: T1, SLMO (Slowmo); MBP-SLMO (Drosophila melanogaster, UniProt Q9V3U9)
T1 construct: N-terminal MBP fusion from pMAL-c6T (BamHI/EcoRI), E. coli BL21(DE3), Ni-NTA purified; tag kept
T1 sequence (Q9V3U9 1-215): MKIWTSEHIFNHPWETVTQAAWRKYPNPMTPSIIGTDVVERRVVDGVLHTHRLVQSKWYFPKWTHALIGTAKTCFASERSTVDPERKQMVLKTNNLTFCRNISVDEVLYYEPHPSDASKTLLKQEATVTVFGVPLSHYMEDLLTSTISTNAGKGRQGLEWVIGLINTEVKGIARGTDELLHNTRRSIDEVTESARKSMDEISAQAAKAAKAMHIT
Assay: liposome lipid transfer assay, NBD dequenching
Type: biochemical
Conditions: labelled compound, donor liposomes PC:PE:Rhod-PE:NBD-PS 56:40:3:1, acceptor PC:PE:CL 55:40:5, no chemical conversion

CCCCCCCC/C=C\CCCCCCCC(=O)OC[C@H](COP(=O)(O)OC[C@H](N)C(=O)O)OC(=O)CCCCCCCCCCCNc1ccc([N+](=O)[O-])c2nonc12 [NBD-PS] was tested. Which “liposome lipid transfer assay, NBD dequenching” value did it give?
The value was “SLMO efficiently transported PS but not PE between liposomes in vitro”.
